Assay results published in patent US10273233B2, “Inhibitors of influenza viruses replication” (Vertex Pharmaceuticals Incorporated, priority 2015, dated 2019).

Legend:
A/Aichi/2/68 = assay: 3-day CP assay in MDCK cells; type: cell-based; conditions: Influenza A virus
A/Equine/Miami/63 = assay: microbe, parasite or virus in culture; type: cell-based; conditions: Influenza A virus, MDCK
A/Hong Kong/8/68 = assay: 3-day CP assay in MDCK cells; type: cell-based; conditions: Influenza A virus
A/Texas/48/2009 = assay: 3-day CP assay in MDCK cells; type: cell-based; conditions: Influenza A virus
A/South Dakota/6/2007 = assay: 3-day CP assay in MDCK cells; type: cell-based; conditions: Influenza A virus
A/Virginia/ATCC3/2009 = assay: 3-day CP assay in MDCK cells; type: cell-based; conditions: Influenza A virus
A/Hawaii/2/2006 = assay: 3-day CP assay in MDCK cells; type: cell-based; conditions: Influenza A virus
A/Cambodia0371/2007 = assay: 3-day CP assay in MDCK cells; type: cell-based; conditions: Influenza A virus
A/Swine/Iowa/15/30 = assay: microbe, parasite or virus in culture; type: cell-based, influenza A; conditions: Influenza A virus, MDCK, in Sus scrofa
A/Port Chalmers/1/73 = assay: 3-day CP assay in MDCK cells; type: cell-based; conditions: Influenza A virus
A/Fukushima/141/2006 = assay: 3-day CP assay in MDCK cells; type: cell-based; conditions: Influenza A virus
A/Puerto Rico/8/34 = assay: 3-day CP assay in MDCK cells; type: cell-based; conditions: Influenza A virus
A/Mal/302/54 = assay: 3-day CP assay in MDCK cells; type: cell-based; conditions: Influenza A virus
A/Weiss/43 = assay: 3-day CP assay in MDCK cells; type: cell-based; conditions: Influenza A virus
A/Swine/1976/31 = assay: microbe, parasite or virus in culture; type: cell-based; conditions: Influenza A virus, MDCK, in Sus scrofa
A/Virginia/ATCC2/2009 = assay: 3-day CP assay in MDCK cells; type: cell-based; conditions: Influenza A virus
A/Texas/12/2007 = assay: 3-day CP assay in MDCK cells; type: cell-based; conditions: Influenza A virus
A/Chelyabinsk/1/200 = assay: 3-day CP assay in MDCK cells; type: cell-based; conditions: Influenza A virus
B/Memphis/20/1996--070 = assay: 3-day CP assay in MDCK cells; type: cell-based; conditions: Influenza B virus
A/Denver/1/57 = assay: 3-day CP assay in MDCK cells; type: cell-based; conditions: Influenza A virus
A/St. Petersburg8/2006 = assay: 3-day CP assay in MDCK cells; type: cell-based; conditions: Influenza A virus
B/Mass/3/66 = assay: 3-day CP assay in MDCK cells; type: cell-based; conditions: Influenza B virus
A/Missouri/3/2006 = assay: 3-day CP assay in MDCK cells; type: cell-based; conditions: Influenza A virus
A/WS/33 = assay: 3-day CP assay in MDCK cells; type: cell-based; conditions: Influenza A virus
B/Memphis/20/1996--071 = assay: 3-day CP assay in MDCK cells; type: cell-based; conditions: Influenza B virus
A/Santiago/7981/2006 = assay: 3-day CP assay in MDCK cells; type: cell-based; conditions: Influenza A virus
A/Victoria/3/75 = assay: 3-day CP assay in MDCK cells; type: cell-based; conditions: Influenza A virus
A/Georgia/20/2006 = assay: 3-day CP assay in MDCK cells; type: cell-based, influenza A; conditions: Influenza A virus, MDCK
B/Russia/69 = assay: 3-day CP assay in MDCK cells; type: cell-based; conditions: Influenza B virus
A/Henan/Jinshui/147/2007 = assay: 3-day CP assay in MDCK cells; type: cell-based; conditions: Influenza A virus
A/Uruguay/716/2007 = assay: 3-day CP assay in MDCK cells; type: cell-based; conditions: Influenza A virus
A/New Jersey/8/76 = assay: microbe, parasite or virus in culture; type: cell-based; conditions: Influenza A virus, MDCK
A/Georgia/17/2006 = assay: 3-day CP assay in MDCK cells; type: cell-based; conditions: Influenza A virus
A/FM/1/47 = assay: 3-day CP assay in MDCK cells; type: cell-based; conditions: Influenza A virus
B/Lee/40 = assay: 3-day CP assay in MDCK cells; type: cell-based; conditions: Influenza B virus
A/Nebraska/1/2006 = assay: 3-day CP assay in MDCK cells; type: cell-based; conditions: Influenza A virus
A/Mexico/4108/2009 = assay: 3-day CP assay in MDCK cells; type: cell-based; conditions: Influenza A virus
A/California/07/2009 = assay: 3-day CP assay in MDCK cells; type: cell-based; conditions: Influenza A virus, MDCK; A/California/07/2009
A/NWS/33 = assay: 3-day CP assay in MDCK cells; type: cell-based, influenza A; conditions: Influenza A virus, MDCK
[1] = test system: A/California/07/2009 NYMC, X-179A; assay: 3-day CP assay in MDCK cells; type: cell-based; conditions: Influenza A virus
A/Wisconsin/67/2005 = assay: 3-day CP assay in MDCK cells; type: cell-based; conditions: Influenza A virus
A/New York/18/2009 = assay: 3-day CP assay in MDCK cells; type: cell-based; conditions: Influenza A virus
A/Virginia/01/2006 = assay: 3-day CP assay in MDCK cells; type: cell-based; conditions: Influenza A virus

CCC(CC)O[C@@H]1C=C(C(=O)O)C[C@H](N)[C@H]1NC(C)=O [Oseltamivir Carboxylate]
EC50 (A/Aichi/2/68): 5 µM | EC50 (A/Equine/Miami/63): 0.25 µM | EC50 (A/Hong Kong/8/68): 0.038 µM | EC50 (A/Texas/48/2009): > 10 µM | EC50 (A/South Dakota/6/2007): 8.2 µM | EC50 (A/Virginia/ATCC3/2009): > 10 µM | EC50 (A/Hawaii/2/2006): > 10 µM | EC50 (A/Cambodia0371/2007): 7.8 µM | EC50 (A/Swine/Iowa/15/30): 7.8 µM | EC50 (A/Port Chalmers/1/73): 0.12 µM | EC50 (A/Fukushima/141/2006): 0.58 µM | EC50 (A/Puerto Rico/8/34): > 10 µM | EC50 (A/Mal/302/54): 1.1 µM | EC50 (A/Weiss/43): 0.49 µM | EC50 (A/Swine/1976/31): 0.56 µM | EC50 (A/Virginia/ATCC2/2009): > 10 µM | EC50 (A/Texas/12/2007): 8.5 µM | EC50 (A/Chelyabinsk/1/200): > 10 µM | EC50 (B/Memphis/20/1996--070): > 10 µM | EC50 (A/Denver/1/57): > 10 µM | EC50 (A/St. Petersburg8/2006): 9.3 µM | EC50 (B/Mass/3/66): 6.7 µM | EC50 (A/Missouri/3/2006): 2.5 µM | EC50 (A/WS/33): > 10 µM | EC50 (B/Memphis/20/1996--071): > 10 µM | EC50 (A/Santiago/7981/2006): > 10 µM | EC50 (A/Victoria/3/75): > 10 µM | EC50 (A/Georgia/20/2006): > 10 µM | EC50 (B/Russia/69): 6 µM | EC50 (A/Henan/Jinshui/147/2007): > 10 µM | EC50 (A/Uruguay/716/2007): > 10 µM | EC50 (A/New Jersey/8/76): 3.8 µM | EC50 (A/Georgia/17/2006): > 10 µM | EC50 (A/FM/1/47): 6.4 µM | EC50 (B/Lee/40): > 10 µM | EC50 (A/Nebraska/1/2006): > 10 µM | EC50 (A/Mexico/4108/2009): > 10 µM | EC50 (A/California/07/2009): > 10 µM | EC50 (A/NWS/33): > 10 µM | EC50 [1]: > 10 µM | EC50 (A/Wisconsin/67/2005): 0.35 µM | EC50 (A/New York/18/2009): 0.16 µM | EC50 (A/Virginia/01/2006): 0.83 µM

CC(=O)N[C@H]1[C@H]([C@H](O)[C@H](O)CO)OC(C(=O)O)=C[C@@H]1N=C(N)N [Zanamivir]
EC50 (A/Aichi/2/68): > 10 µM | EC50 (A/Equine/Miami/63): 0.93 µM | EC50 (A/Hong Kong/8/68): 0.15 µM | EC50 (A/Texas/48/2009): 1.7 µM | EC50 (A/South Dakota/6/2007): 3.4 µM | EC50 (A/Virginia/ATCC3/2009): > 10 µM | EC50 (A/Hawaii/2/2006): > 10 µM | EC50 (A/Cambodia0371/2007): 2.1 µM | EC50 (A/Swine/Iowa/15/30): 1.8 µM | EC50 (A/Port Chalmers/1/73): 0.67 µM | EC50 (A/Fukushima/141/2006): 0.27 µM | EC50 (A/Puerto Rico/8/34): > 10 µM | EC50 (A/Mal/302/54): 0.28 µM | EC50 (A/Weiss/43): 0.08 µM | EC50 (A/Swine/1976/31): 0.25 µM | EC50 (A/Virginia/ATCC2/2009): > 10 µM | EC50 (A/Texas/12/2007): 8.2 µM | EC50 (A/Chelyabinsk/1/200): 7.6 µM | EC50 (B/Memphis/20/1996--070): 2.6 µM | EC50 (A/Denver/1/57): > 10 µM | EC50 (A/St. Petersburg8/2006): 6 µM | EC50 (A/Missouri/3/2006): 3.6 µM | EC50 (A/WS/33): > 10 µM | EC50 (B/Memphis/20/1996--071): 6 µM | EC50 (A/Santiago/7981/2006): 4 µM | EC50 (A/Victoria/3/75): 4.1 µM | EC50 (A/Georgia/20/2006): 4.3 µM | EC50 (B/Russia/69): 3.1 µM | EC50 (A/Henan/Jinshui/147/2007): > 10 µM | EC50 (A/Uruguay/716/2007): 4.7 µM | EC50 (A/New Jersey/8/76): 6.2 µM | EC50 (A/Georgia/17/2006): > 10 µM | EC50 (A/FM/1/47): 2.6 µM | EC50 (B/Lee/40): > 10 µM | EC50 (A/Nebraska/1/2006): > 10 µM | EC50 (A/Mexico/4108/2009): 3.8 µM | EC50 (A/California/07/2009): > 10 µM | EC50 (A/NWS/33): > 10 µM | EC50 [1]: 5.6 µM | EC50 (A/Wisconsin/67/2005): 0.16 µM | EC50 (A/New York/18/2009): 0.31 µM | EC50 (A/Virginia/01/2006): 0.83 µM
